Reference: patent US11083725B2 (priority 2014, dated 2021)

System: NHBE cells
Test: Biolog metabolic array: substrate use by NHBE cells with or without CA09 infection
Type: cell-based, human
Conditions: for Substrate use, 590 nm absorbance normalized to zero hour, 0 hr: Biolog PMM2, 0 hr; for Substrate use, 590 nm absorbance normalized to zero hour, 1 hr: Biolog PMM2, 1 hr; for Substrate use, 590 nm absorbance normalized to zero hour, 5 hr: Biolog PMM2, 5 hr; for Substrate use, 590 nm absorbance normalized to zero hour, 7 hr: Biolog PMM2, 7 hr
[1] = Control (uninfected) NHBE cells
[2] = Virus (CA09-infected, MOI 1) NHBE cells
[3] = Virus: CA09-infected NHBE cells, MOI 1, Biolog PMM2
[4] = Virus (CA09-infected NHBE cells, MOI 1)

Row | Structure (SMILES) | 590 nm absorbance normalized to zero hour (substrate use), 1 hr [1] | 590 nm absorbance normalized to zero hour (substrate use), 2 hr [1] | 590 nm absorbance normalized to zero hour (substrate use), 3 hr [1] | 590 nm absorbance normalized to zero hour (substrate use), 4 hr [1] | 590 nm absorbance normalized to zero hour (substrate use), 6 hr [1] | 590 nm absorbance normalized to zero hour (substrate use), 8 hr [1] | 590 nm absorbance normalized to zero hour (substrate use), 9 hr [1] | 590 nm absorbance normalized to zero hour (substrate use), 10 hr [1] | 590 nm absorbance normalized to zero hour (substrate use), 11 hr [1] | Substrate use, 590 nm absorbance normalized to zero hour, 1 hr [1] | Substrate use, 590 nm absorbance normalized to zero hour, 5 hr [1] | Substrate use, 590 nm absorbance normalized to zero hour, 7 hr [1] | 590 nm absorbance normalized to zero hour (substrate use), 1 hr [3] | 590 nm absorbance normalized to zero hour (substrate use), 2 hr [3] | 590 nm absorbance normalized to zero hour (substrate use), 3 hr [3] | 590 nm absorbance normalized to zero hour (substrate use), 4 hr [3] | 590 nm absorbance normalized to zero hour (substrate use), 5 hr [3] | 590 nm absorbance normalized to zero hour (substrate use), 6 hr [3] | 590 nm absorbance normalized to zero hour (substrate use), 7 hr [3] | 590 nm absorbance normalized to zero hour (substrate use), 8 hr [3] | other results
1 | CC[C@H](O)C(=O)O (racemic) [D,L-a-Hydroxy-Butyric Acid] | 0.92 | 1.05 | 0.99 | 1.01 | 0.56 | 0.72 | 1.79 | 0.74 | 2.19 | 0.92 | 1.18 | 1.41 | 1.29 | 1.58 | 1.74 | 1.84 | 2.00 | 2.10 | 2.18 | 2.26 | 590 nm absorbance normalized to zero hour (substrate use), 0 hr [1]: 1.00; Substrate use, 590 nm absorbance normalized to zero hour, 0 hr [1]: 1.00; 590 nm absorbance normalized to zero hour (substrate use), 0 hr [2]: 1.00; 590 nm absorbance normalized to zero hour (substrate use), 1 hr [2]: 1.29; 590 nm absorbance normalized to zero hour (substrate use), 2 hr [2]: 1.58; 590 nm absorbance normalized to zero hour (substrate use), 3 hr [2]: 1.74; 590 nm absorbance normalized to zero hour (substrate use), 4 hr [2]: 1.84; 590 nm absorbance normalized to zero hour (substrate use), 5 hr [2]: 2.00; 590 nm absorbance normalized to zero hour (substrate use), 6 hr [2]: 2.10; 590 nm absorbance normalized to zero hour (substrate use), 7 hr [2]: 2.18; 590 nm absorbance normalized to zero hour (substrate use), 8 hr [2]: 2.26; 590 nm absorbance normalized to zero hour (substrate use), 9 hr [2]: 2.35; 590 nm absorbance normalized to zero hour (substrate use), 10 hr [2]: 2.39; 590 nm absorbance normalized to zero hour (substrate use), 11 hr [2]: 2.21; 590 nm absorbance normalized to zero hour (substrate use), 0 hr [3]: 1.00; 590 nm absorbance normalized to zero hour (substrate use), 9 hr [3]: 2.35; 590 nm absorbance normalized to zero hour (substrate use), 10 hr [3]: 2.39; 590 nm absorbance normalized to zero hour (substrate use), 11 hr [3]: 2.21
2 | CC(O)CO (centres unmarked) [1,2-Propanediol] | 1.28 | 1.41 | 1.17 | 1.19 | 0.68 | 1.12 | 1.22 | 1.15 | 1.18 | 1.28 | 1.27 | 1.17 | 1.95 | 2.44 | 2.83 | 2.94 | 3.29 | 3.55 | 3.75 | 3.87 | 590 nm absorbance normalized to zero hour (substrate use), 0 hr [1]: 1.00; Substrate use, 590 nm absorbance normalized to zero hour, 0 hr [1]: 1.00; 590 nm absorbance normalized to zero hour (substrate use), 0 hr [2]: 1.00; 590 nm absorbance normalized to zero hour (substrate use), 1 hr [2]: 1.95; 590 nm absorbance normalized to zero hour (substrate use), 2 hr [2]: 2.44; 590 nm absorbance normalized to zero hour (substrate use), 3 hr [2]: 2.83; 590 nm absorbance normalized to zero hour (substrate use), 4 hr [2]: 2.94; 590 nm absorbance normalized to zero hour (substrate use), 5 hr [2]: 3.29; 590 nm absorbance normalized to zero hour (substrate use), 6 hr [2]: 3.55; 590 nm absorbance normalized to zero hour (substrate use), 7 hr [2]: 3.75; 590 nm absorbance normalized to zero hour (substrate use), 8 hr [2]: 3.87; 590 nm absorbance normalized to zero hour (substrate use), 9 hr [2]: 4.24; 590 nm absorbance normalized to zero hour (substrate use), 10 hr [2]: 4.34; 590 nm absorbance normalized to zero hour (substrate use), 11 hr [2]: 4.75; 590 nm absorbance normalized to zero hour (substrate use), 0 hr [3]: 1.00; 590 nm absorbance normalized to zero hour (substrate use), 9 hr [3]: 4.24; 590 nm absorbance normalized to zero hour (substrate use), 10 hr [3]: 4.34; 590 nm absorbance normalized to zero hour (substrate use), 11 hr [3]: 4.75
3 | CC(O)C(C)O (centres unmarked) [2,3-Butanediol] | 1.23 | 1.54 | 1.61 | 1.58 | 0.83 | 1.93 | 2.09 | 2.19 | 2.33 | 1.23 | 1.83 | 1.84 | 1.66 | 1.65 | 0.31 | 0.33 | 0.38 | 0.40 | 0.42 | 0.43 | 590 nm absorbance normalized to zero hour (substrate use), 1 hr [4]: 1.66; 590 nm absorbance normalized to zero hour (substrate use), 2 hr [4]: 1.65; 590 nm absorbance normalized to zero hour (substrate use), 3 hr [4]: 0.31; 590 nm absorbance normalized to zero hour (substrate use), 4 hr [4]: 0.33; 590 nm absorbance normalized to zero hour (substrate use), 5 hr [4]: 0.38; 590 nm absorbance normalized to zero hour (substrate use), 6 hr [4]: 0.40; 590 nm absorbance normalized to zero hour (substrate use), 7 hr [4]: 0.42; 590 nm absorbance normalized to zero hour (substrate use), 8 hr [4]: 0.43; 590 nm absorbance normalized to zero hour (substrate use), 9 hr [4]: 0.45; 590 nm absorbance normalized to zero hour (substrate use), 10 hr [4]: 0.42; 590 nm absorbance normalized to zero hour (substrate use), 11 hr [4]: 0.39; 590 nm absorbance normalized to zero hour (substrate use), 9 hr [3]: 0.45; 590 nm absorbance normalized to zero hour (substrate use), 10 hr [3]: 0.42; 590 nm absorbance normalized to zero hour (substrate use), 11 hr [3]: 0.39
